Results on five compounds are retold here after ChEMBL document CHEMBL1151019, “Kinetics of thermal [1,7a]-sigmatropic shift of hexafluoro vitamin D3 and vitamin D3 derivatives. Evaluation of conformations of the A ring affected by 1-OH and 3-OH groups” (Bioorg Med Chem Lett, 1996).

A short description of this test: Kinetic constant for the transformation of vitamin D to Previtamin D (kl / k-1).

The compound `C=C1/C(=C\C=C2/CCC[C@]3(C)C([C@H](C)CCCC(O)(C(F)(F)F)C(F)(F)F)CC[C@@H]23)C[C@@H](O)C[C@@H]1O` (stereo not given in full) returned a Keq of 5.1. The result for `C=C1/C(=C\C=C2/CCC[C@]3(C)C([C@H](C)C[C@H](O)CC(O)(C(F)(F)F)C(F)(F)F)CC[C@@H]23)C[C@@H](O)C[C@@H]1O` (stereo not given in full) reads 5.46.

On to `C=C1CCCC/C1=C/C=C1\CCC[C@]2(C)C([C@H](C)CCCC(C)C)CC[C@@H]12` (stereo not given in full), for which the Keq stood at 3.06.

`C=C1CC[C@H](O)C/C1=C/C=C1\CCC[C@]2(C)[C@@H]([C@H](C)CCCC(C)C)CC[C@@H]12` returned a Keq of 3.71. For `C=C1/C(=C\C=C2/CCC[C@]3(C)[C@@H]([C@H](C)CCCC(C)C)CC[C@@H]23)C[C@@H](O)C[C@@H]1O`, the Keq was found to be 5.18.
